Measured values reported in PubChem BioAssay AID2060487 (Molecular Pharmacology Branch, DTP, NCI, 2025).
pIC50: −log10 of the molar value.

Tested on: 997537-175-T-J1-PDC complex spheroid viability
Assay: Anticancer human tumor 997537-175-T-J1-PDC patient-derived colon adenocarcinoma cell line growth inhibition [GQUAD]
Details: for pIC50: curve of first compound; for viability, T/C: stronger effect = lower value
How it was run: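 Tumor cells were grown as complex spheroids with HUVEC endothelial cells and mesenchymal stem cells as stroma. G-quadruplex stabilizers were combined with targeted agents over half-log dilutions from near the clinical Cmax, or from 10 microM.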

[1] = second compound 0.0316 µM, first compound 0.0316 µM
[2] = second compound 0.0316 µM, first compound 0.316 µM
[3] = second compound 0.1 µM, first compound 0.0316 µM
[4] = second compound 0.1 µM, first compound 0.316 µM
[5] = second compound 0.316 µM, first compound 0.0316 µM
[6] = second compound 0.316 µM, first compound 0.316 µM
[7] = second compound 1 µM, first compound 0.0316 µM
[8] = second compound 1 µM, first compound 0.316 µM
[9] = second compound 3.16 µM, first compound 0.0316 µM
[10] = second compound 3.16 µM, first compound 0.316 µM
[11] = second compound 10 µM, first compound 0.0316 µM
[12] = second compound 10 µM, first compound 0.316 µM
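Further: spheroids exposed to the agents for 7 days.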
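Wherever viability, T/C is given: 100% = DMSO vehicle control viability.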

CC[C@@]1(O)C(=O)OCc2c1cc1n(c2=O)Cc2cc3c(CN(C)C)c(O)ccc3nc2-1 + Cc1[nH]c2ccc(F)cc2c1-c1nc2c3cccnc3c3ncccc3c2[nH]1
pIC50 (second compound 0.0316 µM): < 6.50
pIC50 (second compound 0.1 µM): < 6.50
pIC50 (second compound 0.316 µM): < 6.50
pIC50 (second compound 1 µM): < 6.50
pIC50 (second compound 3.16 µM): < 6.50
pIC50 (second compound 10 µM): < 6.50
viability, T/C (second compound 0.0316 µM, first compound 0.000999 µM): 97.8%
viability, T/C (second compound 0.0316 µM, first compound 0.00316 µM): 91.4%
viability, T/C (second compound 0.0316 µM, first compound 0.00999 µM): 99.2%
viability, T/C [1]: 86.7%
viability, T/C (second compound 0.0316 µM, first compound 0.0999 µM): 90.6%
viability, T/C [2]: 55.9%
viability, T/C (second compound 0.1 µM, first compound 0.000999 µM): 92%
viability, T/C (second compound 0.1 µM, first compound 0.00316 µM): 89.1%
viability, T/C (second compound 0.1 µM, first compound 0.00999 µM): 75.6%
viability, T/C [3]: 82.8%
viability, T/C (second compound 0.1 µM, first compound 0.0999 µM): 61.2%
viability, T/C [4]: 54.7%
viability, T/C (second compound 0.316 µM, first compound 0.000999 µM): 85.9%
viability, T/C (second compound 0.316 µM, first compound 0.00316 µM): 72.1%
viability, T/C (second compound 0.316 µM, first compound 0.00999 µM): 81.3%
viability, T/C [5]: 97%
viability, T/C (second compound 0.316 µM, first compound 0.0999 µM): 85.5%
viability, T/C [6]: 55.1%
viability, T/C (second compound 1 µM, first compound 0.000999 µM): 80.8%
viability, T/C (second compound 1 µM, first compound 0.00316 µM): 59.6%
viability, T/C (second compound 1 µM, first compound 0.00999 µM): 85.8%
viability, T/C [7]: 93%
viability, T/C (second compound 1 µM, first compound 0.0999 µM): 80.2%
viability, T/C [8]: 62.6%
viability, T/C (second compound 3.16 µM, first compound 0.000999 µM): 51.4%
viability, T/C (second compound 3.16 µM, first compound 0.00316 µM): 82.8%
viability, T/C (second compound 3.16 µM, first compound 0.00999 µM): 61%
viability, T/C [9]: 51.2%
viability, T/C (second compound 3.16 µM, first compound 0.0999 µM): 90.5%
viability, T/C [10]: 70.8%
viability, T/C (second compound 10 µM, first compound 0.000999 µM): 71.8%
viability, T/C (second compound 10 µM, first compound 0.00316 µM): 82.4%
viability, T/C (second compound 10 µM, first compound 0.00999 µM): 77.3%
viability, T/C [11]: 62.2%
viability, T/C (second compound 10 µM, first compound 0.0999 µM): 62.9%
viability, T/C [12]: 58.9%

CCCS(=O)(=O)Nc1ccc(F)c(C(=O)c2c[nH]c3ncc(-c4ccc(Cl)cc4)cc23)c1F + CN(C)c1ccc(Nc2c3ccc(NC(=O)CCN4CCCC4)cc3nc3cc(NC(=O)CCN4CCCC4)ccc23)cc1
pIC50 (second compound 0.0316 µM): 5.66
pIC50 (second compound 0.1 µM): 5.50
pIC50 (second compound 0.316 µM): 5.39
pIC50 (second compound 1 µM): 5.33
pIC50 (second compound 3.16 µM): 5.15
pIC50 (second compound 10 µM): 5.23
viability, T/C [1]: 93.9%
viability, T/C (second compound 0.0316 µM, first compound 0.1 µM): 75.3%
viability, T/C [2]: 60.8%
viability, T/C (second compound 0.0316 µM, first compound 1 µM): 78.6%
viability, T/C (second compound 0.0316 µM, first compound 3.16 µM): 38.4%
viability, T/C (second compound 0.0316 µM, first compound 10 µM): 24.5%
viability, T/C [3]: 105%
viability, T/C (second compound 0.1 µM, first compound 0.1 µM): 73.1%
viability, T/C [4]: 75.4%
viability, T/C (second compound 0.1 µM, first compound 1 µM): 70.6%
viability, T/C (second compound 0.1 µM, first compound 3.16 µM): 52.1%
viability, T/C (second compound 0.1 µM, first compound 10 µM): 32.7%
viability, T/C [5]: 71.3%
viability, T/C (second compound 0.316 µM, first compound 0.1 µM): 72.9%
viability, T/C [6]: 81.3%
viability, T/C (second compound 0.316 µM, first compound 1 µM): 62.9%
viability, T/C (second compound 0.316 µM, first compound 3.16 µM): 59.4%
viability, T/C (second compound 0.316 µM, first compound 10 µM): 23.9%
viability, T/C [7]: 67%
viability, T/C (second compound 1 µM, first compound 0.1 µM): 55%
viability, T/C [8]: 81.7%
viability, T/C (second compound 1 µM, first compound 1 µM): 43.3%
viability, T/C (second compound 1 µM, first compound 3.16 µM): 65.4%
viability, T/C (second compound 1 µM, first compound 10 µM): 26.9%
viability, T/C [9]: 70.3%
viability, T/C (second compound 3.16 µM, first compound 0.1 µM): 63.5%
viability, T/C [10]: 85.1%
viability, T/C (second compound 3.16 µM, first compound 1 µM): 39.9%
viability, T/C (second compound 3.16 µM, first compound 3.16 µM): 78.9%
viability, T/C (second compound 3.16 µM, first compound 10 µM): 42.3%
viability, T/C [11]: 71.3%
viability, T/C (second compound 10 µM, first compound 0.1 µM): 62.6%
viability, T/C [12]: 63.5%
viability, T/C (second compound 10 µM, first compound 1 µM): 56%
viability, T/C (second compound 10 µM, first compound 3.16 µM): 74.9%
viability, T/C (second compound 10 µM, first compound 10 µM): 36.4%
